The structures appear in SMILES notation. “And” between values parts separate entries of the source, which are not always exact repeats. Equal entries are not always repeated. A value given as a limit tells only on which side of the number the result lay.

For the experiment, the system named is SK-OV-3 multi-cell spheroids, viability. The experiment is described as follows: Anticancer human tumor SK-OV-3 cell line growth inhibition [IpAb].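 As to viability, T/C: viability read after seven days of drug exposure; percent of DMSO vehicle control luminescence.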 As to conditions: for viability, T/C: stronger effect = lower value. An excerpt:
Combinatorial screen of targeted agents with ipatasertib and abemaciclib in multi-cell type tumor spheroids
A high-throughput screen of multi-cell type tumor spheroids was designed to identify active combinations of targeted small molecules and ipatasertib or abemaciclib. Complex spheroids include a stromal component modeled by human endothelial cells (HUVEC) and fibroblasts modeled by human mesenchymal stem cells (MSCs). The concentration ranges selected for each drug and investigational agent were based upon clinically achievable concentrations if the clinical Cmax of the agent was known.
Compounds. The drugs and investigational agents: ipatasertib (NSC767898), abemaciclib(NSC768073), selumetinib (NSC741078), trametinib (758246), adavosertib (NSC754352), everolimus (NSC733504), sapanisertib (NSC764658), vemurafenib (NSC761431), venetoclax (NSC766270), copanlisib (NSC809693), apelisib (NSC765974), palbociblib (NSC758247), vemurafenib (NSC761431), dabrafenib (NSC764134), ravoxertinib (NSC781343), BMS-387032 (NSC767048), sotorasib (NSC818433), talazoparib (NSC767125) and afursertib (NSC778305), were obtained from the National Cancer Institute (NCI) Developmental Therapeutics Program Chemical Repository. The FDA-approved anticancer drug set is available from the NCI Developmental Therapeutics Program. […] The stock solutions were prepared in dimethyl sulfoxide (DMSO, Sigma-Aldrich, St. Louis, MO, cat. D2650) at 800-fold the tested concentration and stored at -70 degrees C prior to their use. All drugs and investigational agents were tested over a range starting from a high concentration at or near the clinical Cmax and decreasing in half-log increments. If the clinical Cmax for an agent had not been determined, the highest concentration tested was 10 microM.
NCI60 Cell Culture. NCI60 cell lines were obtained from the NCI Developmental Therapeutics Program Tumor Repository. For each lot of cells, the Repository performed Applied Biosystems AmpFLSTR Identifiler testing with PCR amplification to confirm consistency with the published Identifier STR profile for each cell line. Cells were kept in continuous culture for no more than 20 passages. The optimal seeding densities for each of the cell lines at each time point assessed were determined prior to performing the concentration response studies. Briefly, the NCI60 human tumor lines were grown as monolayers in RPMI 1640 medium supplemented with 10% FBS and 2 mmol/L L-glutamine.
An additional 9 lines were from the NCI60 cell line panel including MDA-MB-231 breast carcinoma, MDA-MB-468 breast carcinoma, MCF7 breast carcinoma, Hs578T breast carcinoma, MALME-3M melanoma, SK-MEL-2 melanoma, SK-OV-3 ovarian carcinoma, DU-145 prostate carcinoma, PC-3 prostate carcinoma, all cell lines along with major genetic alterations are listed on Table 2. Pooled donor human umbilical vein endothelial cells (HUVEC, Lonza, cat. CC-2519) and human mesenchymal stem cells (hMSC, Lonza, cat. PT-2501) were purchased from Lonza (Walkersville, MD).
PDMR cell lines were grown in complete medium (DC medium): Dulbecco's modified Eagle's medium (DMEM)/F12 supplemented with 5% fetal bovine serum (FBS), 2 mM L-glutamine, 100 U/mL penicillin and 100 µg/ml streptomycin, 0.4 µg/ml hydrocortisone, 10 ng/ml epidermal growth factor (EGF) recombinant human protein, 24 µg/mL adenine, and 0.1 mg/mL primocin. During culture from frozen stock vials, PDMR cells were cultured in the same medium containing 10 µM Y-27632 (see Table 3). The PDCs were cultured in complete DMEM/F12 media without 10 microM Y-27632 dihydrochloride for at least two passages prior to the screen. The pooled donor HUVEC and hMSC were cultured in endothelial cell growth medium 2 (PromoCell, Heidelberg, Germany, cat. C-22011) and mesenchymal stem cell growth medium 2 (PromoCell, cat. C-28009), respectively. For all experiments, HUVEC and hMSC were used at passages </=5.
[…]

The term viability, T/C denotes the result in the treated group divided by that in the control group, in per cent. In the case of `CCN1CCN(Cc2ccc(Nc3ncc(F)c(-c4cc(F)c5nc(C)n(C(C)C)c5c4)n3)nc2)CC1`, the viability, T/C (compound 0.01 µM) is 87.1% [middle of 13 runs]; the viability, T/C (compound 0.0316 µM) is 71.2% [middle of 13 runs]; the viability, T/C (compound 0.1 µM) is 54.8% [middle of 13 runs]; the viability, T/C (compound 0.316 µM) is 53.6% [middle of 13 runs]; the viability, T/C (compound 1 µM) is 43.7% [middle of 13 runs].

As usually defined, the IC50 is the point on the concentration scale where inhibition reaches its midpoint. Consider `Cn1ncnc1[C@H]1c2n[nH]c(=O)c3cc(F)cc(c23)N[C@@H]1c1ccc(F)cc1`, for which the viability, T/C is 108% and 97.8% (compound 0.000316 µM); 101% and 102% (compound 0.001 µM); 101% and 98.3% (compound 0.00316 µM); 98.5% and 88.4% (compound 0.01 µM); 87.8% and 86.8% (compound 0.0316 µM); 73.5% and 68.5% (compound 0.1 µM). In addition, where the note is “curve of compound”, the IC50 is above 100 nM.

Take `Cc1nc(NC(=O)N2CCCC2C(N)=O)sc1-c1ccnc(C(C)(C)C(F)(F)F)c1` (centres undefined) + CCN1CCN(Cc2ccc(Nc3ncc(F)c(-c4cc(F)c5nc(C)n(C(C)C)c5c4)n3)nc2)CC1: the IC50 is, setting by setting: (curve of first compound, second compound 0.01 µM) 239 nM; (curve of first compound, second compound 0.0316 µM) 111 nM; (curve of first compound, second compound 0.1 µM) 33.4 nM; (curve of first compound, second compound 0.316 µM) below 31.6 nM; (curve of first compound, second compound 1 µM) below 31.6 nM. The viability, T/C by setting is: (second compound 0.01 µM, first compound 0.0316 µM) 82.9%; (second compound 0.01 µM, first compound 0.1 µM) 70%; (second compound 0.01 µM, first compound 0.316 µM) 43.1%; (second compound 0.01 µM, first compound 1 µM) 20.7%; (second compound 0.01 µM, first compound 3.16 µM) 9.47%; (second compound 0.01 µM, first compound 10 µM) 5.17%. Besides, the viability, T/C was 66.5% (second compound 0.0316 µM, first compound 0.0316 µM); 52.3% (second compound 0.0316 µM, first compound 0.1 µM); 31.7% (second compound 0.0316 µM, first compound 0.316 µM); 17.5% (second compound 0.0316 µM, first compound 1 µM); 8.57% (second compound 0.0316 µM, first compound 3.16 µM); 4.47% (second compound 0.0316 µM, first compound 10 µM). In addition, the viability, T/C (second compound 0.1 µM, first compound 0.0316 µM) was 50.1%; the viability, T/C (second compound 0.1 µM, first compound 0.1 µM) is 40.5%; the viability, T/C (second compound 0.1 µM, first compound 0.316 µM) is 23.9%; the viability, T/C (second compound 0.1 µM, first compound 1 µM) is 15.6%; the viability, T/C (second compound 0.1 µM, first compound 3.16 µM) is 9.26%; the viability, T/C (second compound 0.1 µM, first compound 10 µM) is 4.48%. The viability, T/C runs as follows: (second compound 0.316 µM, first compound 0.0316 µM) 43.2%; (second compound 0.316 µM, first compound 0.1 µM) 37.1%; (second compound 0.316 µM, first compound 0.316 µM) 28.4%; (second compound 0.316 µM, first compound 1 µM) 15.7%; (second compound 0.316 µM, first compound 3.16 µM) 7.93%; (second compound 0.316 µM, first compound 10 µM) 5.24%. For the same molecule, the viability, T/C (second compound 1 µM, first compound 0.0316 µM) was 39.5%; the viability, T/C (second compound 1 µM, first compound 0.1 µM) is 34.7%; the viability, T/C (second compound 1 µM, first compound 0.316 µM) was 23.9%; the viability, T/C (second compound 1 µM, first compound 1 µM) was 15.9%; the viability, T/C (second compound 1 µM, first compound 3.16 µM) is 9.43%; the viability, T/C (second compound 1 µM, first compound 10 µM) is 4.78%.

Consider `CC1(C)CCC(CN2CCN(c3ccc(C(=O)NS(=O)(=O)c4ccc(NCC5CCOCC5)c([N+](=O)[O-])c4)c(Oc4cnc5[nH]ccc5c4)c3)CC2)=C(c2ccc(Cl)cc2)C1`, for which the viability, T/C reads like this: (compound 0.0316 µM) 108% and 100%; (compound 0.1 µM) 105% and 103%; (compound 0.316 µM) 104% and 112%; (compound 1 µM) 96.4% and 94.5%; (compound 3.16 µM) 61.8% and 62.1%; (compound 10 µM) 24.5% and 5.23%. For the same molecule, the IC50 (curve of compound) is 4560 nM and 4020 nM.
